Measurements taken from US20100210616A1, “METAL COMPLEXES INCORPORATED WITHIN BIODEGRADABLE NANOPARTICLES AND THEIR USE” (THE UNIVERSITY OF AKRON, priority 2007, published 2010).

How the values were obtained:
[1] = system: silver sensitive E. coli J53; experiment: MIC against silver sensitive E. coli J53; assay type: cell-based; conditions: Escherichia coli
[2] = system: J53 containing the silver resistance plasmid pMG101; experiment: microbe, parasite or virus in culture; assay type: cell-based, E. coli; conditions: Escherichia coli
[3] = MIC testing against panel of bacterial strains; assay type: cell-based; conditions: panel of strains; prior to loading in nanoparticles
[4] = system: P. aeruginosa (PAO1, PAM57-15 and PAJG3), B. cepacia (PC783), B. multivorans (HI2229), B. cenocepacia (J2315), B. dolosa, M. tuberculosis and control E. coli …; experiment: MIC testing against panel of bacterial strains; assay type: cell-based; conditions: prior to loading in nanoparticles; for MIC range: panel of strains
M. tuberculosis = experiment: MIC against M. tuberculosis; assay type: cell-based; conditions: Mycobacterium tuberculosis

Row | Compound | MIC [1] | MIC [2] | MIC90 [3] | MIC range [4] | antimicrobial effectiveness in MIC testing versus other more water soluble silver metal complexes [4] | MIC (M. tuberculosis)
1 | CC(=O)[O][Ag][CH]1N(C)c2c(n(C)c(=O)n(Cc3ccc4ccccc4c3)c2=O)N1C (stereo not drawn) [compound 13] | 1 µg/mL | > 10 µg/mL | 0.8 µg/mL | 0.8 to 2 µg/mL | more effective | 16 mg/mL
2 | CCCCCCN1C(Cl)=C(Cl)N(C)[CH]1[Ag][O]C(C)=O (stereo not drawn) [compound 9] | 1 µg/mL | > 10 µg/mL | 1 µg/mL | 1 to 2 µg/mL | more effective | 16 mg/mL
